Assay results reported in PMC5218480 (PLoS ONE, 2017).

Test system: MV-4-11 cells
Assay: Gene expression microarray analysis (Affymetrix PrimeView) and GSEA
Format: cell-based, human
Design: RFU PODN (11730768_x_at) / Fold change /veh PODN (11730768_x_at) / RFU LINC00158 (11744669_a_at) / Fold change /veh LINC00158 (11744669_a_at) / RFU DUSP10 (11751237_a_at) / Fold change /veh DUSP10 (11751237_a_at) / RFU ID3 (11757404_x_at) / Fold change /veh ID3 (11757404_x_at) / RFU PLEKHG5 (11737974_s_at) / Fold change /veh PLEKHG5 (11737974_s_at) / RFU LRRC4B (11730491_at) / Fold change /veh LRRC4B (11730491_at) / RFU GIMAP4 (11747438_a_at) / Fold change /veh GIMAP4 (11747438_a_at) / RFU KRT8 (11758183_x_at) / Fold change /veh KRT8 (11758183_x_at) / RFU CNN1 (11734310_a_at) / Fold change /veh CNN1 (11734310_a_at) / RFU VPS37D (11726825_at) / Fold change /veh VPS37D (11726825_at) / RFU C10orf10 (11716522_x_at) / Fold change /veh C10orf10 (11716522_x_at) / RFU KIR2DL2 /// KIR2DL4 /// KIR2DL5A /// KIR2DL5B /// KIR2DS1 /// KIR2DS2 /// KIR2DS3 /// KIR2DS4 /// KIR3DL3 /// KIR3DL3 /// KIR3DS1 (11738374_at) / Fold change /veh KIR2DL2 /// KIR2DL4 /// KIR2DL5A /// KIR2DL5B /// KIR2DS1 /// KIR2DS2 /// KIR2DS3 /// KIR2DS4 /// KIR3DL3 /// KIR3DL3 /// KIR3DS1 (11738374_at) / RFU C1QL1 (11718748_at) / Fold change /veh C1QL1 (11718748_at) / RFU TMPRSS4 (11747572_a_at) / Fold change /veh TMPRSS4 (11747572_a_at) / RFU HAMP (11756126_x_at) / Fold change /veh HAMP (11756126_x_at) / RFU RNFT2 (11725882_a_at) / Fold change /veh RNFT2 (11725882_a_at) / RFU NR4A2 (11747474_a_at) / Fold change /veh NR4A2 (11747474_a_at) / RFU ABCC12 (11746883_a_at) / Fold change /veh ABCC12 (11746883_a_at) / RFU TMEM136 (11760407_x_at) / Fold change /veh TMEM136 (11760407_x_at) / RFU CLDN22 /// WWC2 (11732394_at) / Fold change /veh CLDN22 /// WWC2 (11732394_at) / RFU HLA-DPB1 (11760878_x_at) / Fold change /veh HLA-DPB1 (11760878_x_at) / RFU SPINT1 (11716480_a_at) / Fold change /veh SPINT1 (11716480_a_at) / RFU GAP43 (11754022_s_at) / Fold change /veh GAP43 (11754022_s_at) / RFU A4GNT (11735810_at) / Fold change /veh A4GNT (11735810_at) / RFU PRB3 (11715151_x_at) / Fold change /veh PRB3 (11715151_x_at) / RFU TUBB4B (11761932_at) / Fold change /veh TUBB4B (11761932_at) / RFU CAPN14 (11732068_a_at) / Fold change /veh CAPN14 (11732068_a_at) / RFU TMCC2 (11721928_a_at) / Fold change /veh TMCC2 (11721928_a_at) / RFU IRGQ (11745062_a_at) / Fold change /veh IRGQ (11745062_a_at) / RFU FAM174B (11720279_a_at) / Fold change /veh FAM174B (11720279_a_at) / RFU TMPRSS4 (11748680_a_at) / Fold change /veh TMPRSS4 (11748680_a_at) / RFU FAM212B (11763350_a_at) / Fold change /veh FAM212B (11763350_a_at) / RFU PLEKHG5 (11743358_a_at) / Fold change /veh PLEKHG5 (11743358_a_at) / RFU ZSCAN30 (11745921_a_at) / Fold change /veh ZSCAN30 (11745921_a_at) / RFU CMKLR1 (11741424_a_at) / Fold change /veh CMKLR1 (11741424_a_at) / RFU LOC101060620 /// MAPK8IP1 (11723275_at) / Fold change /veh LOC101060620 /// MAPK8IP1 (11723275_at) / RFU SPTSSB (11747773_x_at) / Fold change /veh SPTSSB (11747773_x_at) / RFU PRSS12 (11739890_at) / Fold change /veh PRSS12 (11739890_at) / RFU BIN1 (11741810_x_at) / Fold change /veh BIN1 (11741810_x_at) / RFU WNT11 (11732464_a_at) / Fold change /veh WNT11 (11732464_a_at) / RFU C10orf10 (11716521_a_at) / Fold change /veh C10orf10 (11716521_a_at) / RFU C5orf56 (11738089_at) / Fold change /veh C5orf56 (11738089_at) / RFU CYB561 (11721691_x_at) / Fold change /veh CYB561 (11721691_x_at) / RFU ANKRD19P (11752326_a_at) / Fold change /veh ANKRD19P (11752326_a_at) / RFU OR2T12 /// OR2T33 /// OR2T8 (11738714_s_at) / Fold change /veh OR2T12 /// OR2T33 /// OR2T8 (11738714_s_at) / RFU VCAN (11748164_a_at) / Fold change /veh VCAN (11748164_a_at) / RFU JSRP1 (11732532_at) / Fold change /veh JSRP1 (11732532_at) / RFU KRTAP10-11 (11738290_x_at) / Fold change /veh KRTAP10-11 (11738290_x_at) / RFU MYO3A (11730013_a_at) / Fold change /veh MYO3A (11730013_a_at) / RFU EBF3 (11725865_a_at) / Fold change /veh EBF3 (11725865_a_at) / RFU CAMK2N1 (11719241_x_at) / Fold change /veh CAMK2N1 (11719241_x_at) / RFU C5orf56 (11738088_a_at) / Fold change /veh C5orf56 (11738088_a_at) / RFU OLFML3 (11715873_a_at) / Fold change /veh OLFML3 (11715873_a_at) / RFU LOC100653217 /// NTM (11731650_a_at) / Fold change /veh LOC100653217 /// NTM (11731650_a_at) / RFU MAPK11 (11762145_a_at) / Fold change /veh MAPK11 (11762145_a_at) / RFU FIZ1 (11724087_x_at) / Fold change /veh FIZ1 (11724087_x_at) / RFU OASL (11726364_x_at) / Fold change /veh OASL (11726364_x_at) / RFU SOX15 (11748057_x_at) / Fold change /veh SOX15 (11748057_x_at) / RFU CD79A (11719716_a_at) / Fold change /veh CD79A (11719716_a_at) / RFU HIST1H1D (11736915_at) / Fold change /veh HIST1H1D (11736915_at) / RFU CASKIN2 (11723855_a_at) / Fold change /veh CASKIN2 (11723855_a_at) / RFU LOC730098 (11760151_x_at) / Fold change /veh LOC730098 (11760151_x_at) / RFU OR4N2 (11742367_at) / Fold change /veh OR4N2 (11742367_at) / RFU PRRT2 (11749266_a_at) / Fold change /veh PRRT2 (11749266_a_at) / RFU SNX32 (11753110_a_at) / Fold change /veh SNX32 (11753110_a_at) / RFU CDHR5 (11726645_a_at) / Fold change /veh CDHR5 (11726645_a_at) / RFU RCAN1 (11760418_a_at) / Fold change /veh RCAN1 (11760418_a_at) / RFU FAM167A (11723789_a_at) / Fold change /veh FAM167A (11723789_a_at) / RFU FAM26E (11764081_at) / Fold change /veh FAM26E (11764081_at) / RFU ISYNA1 (11749810_s_at) / Fold change /veh ISYNA1 (11749810_s_at) / RFU ACY1 (11761880_at) / Fold change /veh ACY1 (11761880_at) / RFU 11764098_at / Fold change /veh 11764098_at / RFU SAMD14 (11745864_x_at) / Fold change /veh SAMD14 (11745864_x_at) / RFU NPB (11741838_a_at) / Fold change /veh NPB (11741838_a_at) / RFU TMPRSS6 (11731388_a_at) / Fold change /veh TMPRSS6 (11731388_a_at) / RFU KRTAP10-2 (11738614_at) / Fold change /veh KRTAP10-2 (11738614_at) / RFU ARHGAP8 /// PRR5-ARHGAP8 (11727945_x_at) / Fold change /veh ARHGAP8 /// PRR5-ARHGAP8 (11727945_x_at) / RFU KRTAP5-7 /// NADSYN1 (11734609_at) / Fold change /veh KRTAP5-7 /// NADSYN1 (11734609_at) / RFU RASL12 (11751679_a_at) / Fold change /veh RASL12 (11751679_a_at) / RFU CDKN2B (11736163_a_at) / Fold change /veh CDKN2B (11736163_a_at) / RFU PRF1 (11729649_at) / Fold change /veh PRF1 (11729649_at) / RFU, ZNF638 /// ZNF638-IT1 / Fold change vs veh, ZNF638 /// ZNF638-IT1 / RFU, PANK3 / Fold change vs veh, PANK3 / RFU, SH3YL1 / Fold change vs veh, SH3YL1 / RFU, ZEB2 / Fold change vs veh, ZEB2 / RFU, NRIP1 / Fold change vs veh, NRIP1 / RFU, PTTG1IP / Fold change vs veh, PTTG1IP / RFU, CAPN2 / Fold change vs veh, CAPN2 / RFU, MED14 / Fold change vs veh, MED14 / RFU, SNORA58 / Fold change vs veh, SNORA58 / RFU, C1orf63 / Fold change vs veh, C1orf63 / RFU, LRRFIP1 / Fold change vs veh, LRRFIP1 / RFU, NDUFAF7 / Fold change vs veh, NDUFAF7 / RFU, SLC12A2 / Fold change vs veh, SLC12A2 / RFU, IBTK / Fold change vs veh, IBTK / RFU, ESF1 / Fold change vs veh, ESF1 / Fold change vs veh, TMEM50B / RFU, TAOK1 / Fold change vs veh, TAOK1 / RFU, ACBD3 / Fold change vs veh, ACBD3 / RFU, TMA16 / Fold change vs veh, TMA16 / RFU, RWDD3 / Fold change vs veh, RWDD3 / RFU, BCAT1 / Fold change vs veh, BCAT1 / RFU, EDEM3 / Fold change vs veh, EDEM3 / RFU, TMEM33 / Fold change vs veh, TMEM33 / RFU, WDR75 / Fold change vs veh, WDR75 / RFU, AHCTF1 / Fold change vs veh, AHCTF1 / RFU, TFRC / Fold change vs veh, TFRC / RFU, ZDHHC17 / Fold change vs veh, ZDHHC17 / RFU, NOM1 / Fold change vs veh, NOM1 / RFU, ARL8B / Fold change vs veh, ARL8B / RFU, ZBTB11 / Fold change vs veh, ZBTB11 / RFU, TAMM41 / Fold change vs veh, TAMM41 / RFU, KIAA1704 /// LOC100996395 / Fold change vs veh, KIAA1704 /// LOC100996395 / RFU, ING1 / Fold change vs veh, ING1 / RFU, TRMT61B / Fold change vs veh, TRMT61B / RFU, FUBP3 / Fold change vs veh, FUBP3 / RFU, TP53 / Fold change vs veh, TP53 / RFU, TNKS2 / Fold change vs veh, TNKS2 / RFU, ZFP14 / Fold change vs veh, ZFP14 / RFU, ACTR2 / Fold change vs veh, ACTR2 / RFU, PPP3R1 / Fold change vs veh, PPP3R1 / RFU, PIK3R1 / Fold change vs veh, PIK3R1 / RFU, HNRNPA1 / Fold change vs veh, HNRNPA1 / RFU, RNF170 / Fold change vs veh, RNF170 / RFU, ZNF28 / Fold change vs veh, ZNF28 / RFU, RNGTT / Fold change vs veh, RNGTT / RFU, OGT / Fold change vs veh, OGT / RFU, BRD1 / Fold change vs veh, BRD1 / RFU, MARS / Fold change vs veh, MARS / RFU, ZNF655 / Fold change vs veh, ZNF655 / RFU, FAHD1 / Fold change vs veh, FAHD1 / RFU, BDP1 / Fold change vs veh, BDP1 / RFU, LRRCC1 / Fold change vs veh, LRRCC1 / RFU, ARID1A / Fold change vs veh, ARID1A / RFU, ZNF146 / Fold change vs veh, ZNF146 / RFU, ZNF330 / Fold change vs veh, ZNF330 / RFU, GPN3 / Fold change vs veh, GPN3 / RFU, C9orf123 / Fold change vs veh, C9orf123 / RFU, N4BP2L2 / Fold change vs veh, N4BP2L2 / RFU, ARFIP1 / Fold change vs veh, ARFIP1 / RFU, FAM179B / Fold change vs veh, FAM179B / RFU, BCL10 / Fold change vs veh, BCL10 / RFU, UHRF1BP1L / Fold change vs veh, UHRF1BP1L / RFU, BET1 / Fold change vs veh, BET1 / RFU, CNOT2 / Fold change vs veh, CNOT2 / RFU, ZNF268 / Fold change vs veh, ZNF268 / Fold change vs veh, ZNF507 / RFU, DGCR2 / Fold change vs veh, DGCR2 / RFU, WDSUB1 / Fold change vs veh, WDSUB1 / Fold change vs veh, HSP90B1 /// MIR3652 / RFU, ADSS / Fold change vs veh, ADSS / RFU, GK / Fold change vs veh, GK / RFU, ZNF148 / Fold change vs veh, ZNF148 / RFU, TAF9 / Fold change vs veh, TAF9 / RFU, SLC1A5 / Fold change vs veh, SLC1A5 / RFU, SLMO2 / Fold change vs veh, SLMO2 / RFU, ABCC4 / Fold change vs veh, ABCC4 / RFU, LOC101060439 /// RAP1B / Fold change vs veh, LOC101060439 /// RAP1B / RFU, RFX7 / Fold change vs veh, RFX7 / RFU, GTPBP10 / Fold change vs veh, GTPBP10 / RFU, CNEP1R1 / Fold change vs veh, CNEP1R1 / RFU, BIVM-ERCC5 /// ERCC5 / Fold change vs veh, BIVM-ERCC5 /// ERCC5 / RFU, ILF3 / Fold change vs veh, ILF3 / RFU 11762660_at / Fold change /veh 11762660_at / RFU VCAN (11757783_s_at) / Fold change /veh VCAN (11757783_s_at) / RFU DDX43 (11728927_at) / Fold change /veh DDX43 (11728927_at) / RFU KRT8 (11758188_x_at) / Fold change /veh KRT8 (11758188_x_at) / RFU NKD1 (11759106_at) / Fold change /veh NKD1 (11759106_at) / RFU SRD5A1 (11742802_a_at) / Fold change /veh SRD5A1 (11742802_a_at) / RFU TPSAB1 /// TPSB2 (11721975_s_at) / Fold change /veh TPSAB1 /// TPSB2 (11721975_s_at) / RFU GSTM3 (11746129_a_at) / Fold change /veh GSTM3 (11746129_a_at) / RFU IL23R (11737362_x_at) / Fold change /veh IL23R (11737362_x_at) / RFU TMEM51 (11727254_a_at) / Fold change /veh TMEM51 (11727254_a_at) / RFU PIWIL2 (11732686_x_at) / Fold change /veh PIWIL2 (11732686_x_at) / RFU ORM1 (11744905_x_at) / Fold change /veh ORM1 (11744905_x_at) / RFU CCDC152 (11743942_at) / Fold change /veh CCDC152 (11743942_at) / RFU ECM1 (11717891_a_at) / Fold change /veh ECM1 (11717891_a_at) / RFU IL23R (11748794_a_at) / Fold change /veh IL23R (11748794_a_at) / RFU TNFAIP8L3 (11732012_x_at) / Fold change /veh TNFAIP8L3 (11732012_x_at) / RFU MBOAT4 (11741988_at) / Fold change /veh MBOAT4 (11741988_at) / RFU 11764193_at / Fold change /veh 11764193_at / RFU TMEM53 (11763286_at) / Fold change /veh TMEM53 (11763286_at) / RFU MAGEB2 (11727129_at) / Fold change /veh MAGEB2 (11727129_at) / RFU TMEM200A (11744735_a_at) / Fold change /veh TMEM200A (11744735_a_at) / RFU CCDC152 (11751479_a_at) / Fold change /veh CCDC152 (11751479_a_at) / RFU FAM211A (11726209_a_at) / Fold change /veh FAM211A (11726209_a_at) / RFU RGS16 (11746705_a_at) / Fold change /veh RGS16 (11746705_a_at) / RFU VCAN (11755009_s_at) / Fold change /veh VCAN (11755009_s_at) / RFU RHOB (11743442_s_at) / Fold change /veh RHOB (11743442_s_at) / RFU RGS16 (11720943_a_at) / Fold change /veh RGS16 (11720943_a_at) / RFU RGS16 (11720944_at) / Fold change /veh RGS16 (11720944_at) / RFU, VPS4B / Fold change vs veh, VPS4B / RFU, CREB1 / Fold change vs veh, CREB1 / RFU, DNAJC13 / Fold change vs veh, DNAJC13 / RFU, GNAQ / Fold change vs veh, GNAQ / RFU, CDK5R1 / Fold change vs veh, CDK5R1 / RFU, ZRANB3 / Fold change vs veh, ZRANB3 / RFU, CUL4A / Fold change vs veh, CUL4A / RFU, CCNY / Fold change vs veh, CCNY / RFU, UFL1 / Fold change vs veh, UFL1 / RFU, COG3 / Fold change vs veh, COG3 / RFU, DIAPH2 / Fold change vs veh, DIAPH2 / RFU, SKA2 / Fold change vs veh, SKA2 / RFU, AFF3 / Fold change vs veh, AFF3 / RFU, LMF1 / Fold change vs veh, LMF1 / RFU, IPO11 / Fold change vs veh, IPO11 / RFU, DFFB / Fold change vs veh, DFFB / RFU, FOXP1 / Fold change vs veh, FOXP1 / RFU, CARD8 / Fold change vs veh, CARD8 / RFU, STRN3 / Fold change vs veh, STRN3 / RFU, ADK / Fold change vs veh, ADK / RFU, RASSF2 / Fold change vs veh, RASSF2 / RFU, WIPF1 / Fold change vs veh, WIPF1 / RFU, LARP1B / Fold change vs veh, LARP1B / RFU, RASA1 / Fold change vs veh, RASA1 / RFU, RB1 / Fold change vs veh, RB1 / RFU, PPFIA1 / Fold change vs veh, PPFIA1 / RFU, MAT2A / Fold change vs veh, MAT2A / RFU, CCT5 / Fold change vs veh, CCT5 / RFU, WDR92 / Fold change vs veh, WDR92 / RFU, CUX1 / Fold change vs veh, CUX1 / RFU, TTC7A / Fold change vs veh, TTC7A / RFU, TMEM135 / Fold change vs veh, TMEM135 / RFU, DEPTOR / Fold change vs veh, DEPTOR / RFU, CPM / Fold change vs veh, CPM / RFU, DNAJB6 / Fold change vs veh, DNAJB6 / RFU, CACNA2D3 / Fold change vs veh, CACNA2D3 / RFU, DTX4 / Fold change vs veh, DTX4 / RFU, TFCP2 / Fold change vs veh, TFCP2 / RFU, GMCL1 /// GMCL1P1 / Fold change vs veh, GMCL1 /// GMCL1P1 / RFU, AEBP2 / Fold change vs veh, AEBP2 / RFU, SNHG1 /// SNORD22 /// SNORD25 /// SNORD26 /// SNORD27 /// SNORD28 /// SNORD29 /// SNORD31 / Fold change vs veh, SNHG1 /// SNORD22 /// SNORD25 /// SNORD26 /// SNORD27 /// SNORD28 /// SNORD29 /// SNORD31 / Fold change (Aza/veh), C12orf56 (ProbeSet 11735607_a_at) / Fold change (ACY-1035/veh), C12orf56 (ProbeSet 11735607_a_at) / Fold change (Aza/veh), FGFR1OP (ProbeSet 11751329_s_at) / Fold change (ACY-1035/veh), FGFR1OP (ProbeSet 11751329_s_at) / Fold change (Aza/veh), VPS36 (ProbeSet 11739960_a_at) / Fold change (ACY-1035/veh), VPS36 (ProbeSet 11739960_a_at) / RFU SYPL1 (11715823_x_at) / Fold change /veh SYPL1 (11715823_x_at) / RFU IGFBP7 (11715501_s_at) / Fold change /veh IGFBP7 (11715501_s_at) / RFU REEP3 (11722064_at) / Fold change /veh REEP3 (11722064_at) / RFU IGLL1 (11728026_x_at) / Fold change /veh IGLL1 (11728026_x_at): dose or concentration left out as unconfirmed
Conditions: MV-4-11 cells, 48 hours

Nc1ncn([C@@H]2O[C@H](CO)[C@@H](O)[C@H]2O)c(=O)n1 [azacitidine]
Fold change /veh CDKN2B (11736163_a_at): 1.08
